Reference: article PMC12564302, “Discovery of N-Hydroxypyridinedione-Based Inhibitors of HBV RNase H: Design, Synthesis, and Extended SAR Studies” (International Journal of Molecular Sciences, 2025)
Like-named read-outs stand apart in the source and are kept apart here.

Columns and labels:
[1] = test system: HBV replication in HepDES19 cells; conditions: cited from earlier work
HepDES19 cells = conditions: cited from earlier work
[2] = test system: HBV replication in HepDES19 cells; assay: qPCR HBV replication inhibition assay; format: cell-based, HBV genotype D; conditions: 72 h, (+) polarity DNA strand, pH 7.4, read-out: EC50
Description: (§1) HepDES19 cells are a HepG2 cell-line derivative that has been stably transfected with an HBV genotype D genome containing a tetracycline repressible promoter. HepDES19 cells were maintained on collagen-coated plates in Dulbecco’s modified Eagle’s medium (DMEM/F12) (Cytiva Life Sciences, Marlborough, MA, USA) supplemented with 10% fetal bovine serum (FBS), streptomycin (100 µg/mL), and penicillin (100 IU/mL), and incubated at 37 °C with 5% CO2 and saturating humidity. Cells were cultured with 1 µg/mL tetracycline to inhibit the expression of the stably integrated HBV genome, and HBV replication was activated upon removal of tetracycline from the culture medium.
HBV replication inhibition in HepDES19 cells was assessed using a strand-preferential quantitative PCR assay as previously described. HepDES19 cells were seeded in 96 well plates at 4 × 10^4 cells/well for 48 h followed by the addition of serial diluted compound with a final concentration of 1% DMSO for 72 h, after which cells were lysed, and qPCR was performed as described in Li et al.. Effective concentration 50% (EC50) values were calculated from data for the (+) polarity DNA strand data using GraphPad Prism version 10’s four-parameter log (inhibitor) versus response algorithm, with the bottom value set to zero. Three or more replicate assays were performed on different days.

MTS cytotoxicity assay = format: cell-based; conditions: human, HepDES19 cells, pH 7.4
Description: as §1
Cell viability was assessed using the CellTiter 96^TM Aqueous Non-Radioactive Cell Proliferation assay (MTS) (Promega, Madison, WI, USA) as described previously. HepDES19 cells were seeded in 96 well plates at 1 × 10^4 cells/well for 48 h. Cells were then incubated with serial diluted compound, with a final concentration of 1% DMSO, for 72 h. Following compound incubation, background absorbance values were subtracted, and the data were converted into percent cell viability. The cytotoxic concentration 50% (CC50) values were calculated using GraphPad Prism’s four-parameter log (inhibitor) versus response algorithm, with the bottom value set to zero. Three or more replicate assays were performed on different days.

Solubility limit assay = format: physicochemical; conditions: DMEM-F12 without phenol red with 10% FBS, pH 7.4, plasma or biological fluid, kinetic from dmso stock
Description: Solubility limits of compounds were tested as previously reported in DMEM-F12 without phenol red (Gibco, Grand Island, NY, USA) but with the media supplemented with 10% FBS (pH 7.4) to mimic cell culture experiments. In a 384-well optically clear plate, compounds were serially diluted in pH 7.4 buffer (upper limit 200 µM, DMSO 1%) then read at 620 nm. Solubility limits were determined by plotting compound concentration (µM) against optical density (OD) and identifying an inflexion point. The inflexion point is defined by a substantial increase in OD brought on by increasing turbidity, and the compound concentration at this point is known as the solubility limit. Each compound had at least two replicate assays performed on different days.

[3] = Parallel artificial membrane permeability assay; format: in vitro ADME; conditions: PAMPA, pH 7.4, PAMPA
Description: The evaluation of apparent passive permeability (Papp) at pH 7.4 was performed using a donor/acceptor cassette (Innovative Laboratory Products, Phoenix, AZ, USA and Sigma Aldrich, Burlington, MA, USA), which simulates the apical and basolateral sides of the small intestine epithelium, as previously described. An artificial membrane made of 1% w/v lecithin/dodecane was applied to the poly (vinylidene fluoride) (PVDF) membrane filter and allowed to dry. Following drying, compounds (200 µM) were diluted in buffer at pH 7.4 and added to the donor side of the cassette. The same pH buffer was added on the acceptor side of the cassette, after which it was assembled and incubated at room temperature with shaking at 250 rpm for 2 h, before reading the absorbance of 100 µL from the acceptor well on a plate reader between 230 and 700 nm. The Papp (cm/s) values for compounds were determined by normalizing to the compound absorbance at equilibrium using the peak absorbance point for each compound, buffer volume, incubation time, and membrane porosity. Two or more replicate assays were conducted on different days.

[4] = test system: HBV RNase H carrying the P790L mutation; assay: Recombinant RNase H biochemical assay (FAM/IowaBlack RNA:DNA heteroduplex); conditions: qualitative assay
Description: HBV RNase H carrying the P790L mutation that is needed to stabilize the recombinant enzyme was purified from E. coli, and RNase H assays in which an RNA:DNA heteroduplex was incubated with the recombinant enzyme were performed. The RNA strand is FAM-labelled, and the DNA strand carries an IowaBlack quencher. Cleavage of the RNA strand releases the FAM moiety from quenching, causing an increase in fluorescence. Performance limitations with the enzyme limit this assay to just qualitative interpretation.

[5] = Figure 1, earlier HBV RNase H inhibitors
[6] = Hepatitis B virus, HepDES19, 72 h, pH 7.4, HepDES19 cells
[7] = pH 7.4, DMEM-F12 with 10% FBS, 1% DMSO, upper limit 200 µM, read-out: Solubility Limit
[8] = pH 7.4, read-out: Solubility Limit Interpretation
[9] = pH 7.4, 200 µM, 2 h, read-out: Papp
[10] = pH 7.4, read-out: Papp Interpretation
[11] = pH 7.4, previously published compounds
[12] = pH 7.4, previously published compound
[13] = pH 7.4, previously published compound, Table 1

Row | SMILES | EC50 [2, 6] | CC50 at 72 h (MTS cytotoxicity assay) | solubility (Solubility limit assay; [7]) | solubility (Solubility limit assay; [8]) | Papp at 2 h, 200 µM [3, 9] | Papp at 2 h, 200 µM [3, 10] | EC50 [1, 11] | CC50 (HepDES19 cells; [11]) | further results
1 | COc1ccc(CON=C(C)c2c(C)cc(=O)n(O)c2O)cc1 [A24] | – | – | – | – | – | – | – | – | EC50 [1, 5]: 0.29 µM; CC50 (HepDES19 cells; [5]): 102 µM
2 | CC(=Nc1ccc(F)c(F)c1)c1c(C)cc(=O)n(O)c1O [Compound 22, 5-(1-((3,4-difluorophenyl)imino)ethyl)-1,6-dihydroxy-4-methylpyridin-2(1H)-one] | 0.9 µM | 100 µM | > 200 µM | > 100 µM | 2.99 ×10⁻⁶ cm/s | > 1 ×10⁻⁶ cm/s | – | – | EC50 ([2]; HepDES19 cells): 0.89 ± 0.4 µM; suppression of RNase H activity ([4]; at 100 µM): ~ 50%; suppression of RNase H activity (in words) [4]: dose-dependent suppression of RNase H activity
3 | CC(=NCc1cccc(F)c1)c1c(C)cc(=O)n(O)c1O [Compound 39, 5-(1-((3-fluorobenzyl)imino)ethyl)-1,6-dihydroxy-4-methylpyridin-2(1H)-one] | 27.6 ± 3.7 µM | 19.3 ± 10.5 µM | > 200 µM | > 100 µM | 1.89 ×10⁻⁶ cm/s | > 1 ×10⁻⁶ cm/s | – | – | –
4 | CC(=NCc1ccc(F)cc1)c1c(C)cc(=O)n(O)c1O [Compound 40, 5-(1-((4-fluorobenzyl)imino)ethyl)-1,6-dihydroxy-4-methylpyridin-2(1H)-one] | 16.5 ± 3.5 µM | 15.4 ± 7.4 µM | > 200 µM | > 100 µM | 1.1 ×10⁻⁶ cm/s | > 1 ×10⁻⁶ cm/s | – | – | –
5 | CC(=NCc1ccc(F)c(F)c1)c1c(C)cc(=O)n(O)c1O [Compound 41, 5-(1-((3,4-difluorobenzyl)imino)ethyl)-1,6-dihydroxy-4-methylpyridin-2(1H)-one] | 10.7 ± 0.5 µM | 23.9 ± 11.7 µM | > 200 µM | > 100 µM | 2.54 ×10⁻⁶ cm/s | > 1 ×10⁻⁶ cm/s | – | – | –
6 | CC(=NCc1cc(F)cc(F)c1)c1c(C)cc(=O)n(O)c1O [Compound 42, 5-(1-((3,5-difluorobenzyl)imino)ethyl)-1,6-dihydroxy-4-methylpyridin-2(1H)-one] | 73.7 ± 26.3 µM | 82.9 ± 24.6 µM | > 200 µM | > 100 µM | 1.53 ×10⁻⁶ cm/s | > 1 ×10⁻⁶ cm/s | – | – | –
7 | CC(=NCCOc1ccc(Cl)cc1)c1c(C)cc(=O)n(O)c1O [Compound 43, 5-(1-((2-(4-chlorophenoxy)ethyl)imino)ethyl)-1,6-dihydroxy-4-methylpyridin-2(1H)-one] | 17.2 ± 6.6 µM | 30.1 ± 12.5 µM | > 200 µM | > 100 µM | 0.86 ×10⁻⁶ cm/s | < 1 ×10⁻⁶ cm/s | – | – | –
8 | C/C(=N\OCc1ccccc1Br)c1c(C)cc(=O)n(O)c1O [Compound 46] | – | – | – | – | – | – | 2 ± 1.6 µM | 80.8 ± 27.5 µM | –
9 | C/C(=N\OCc1cccc(Br)c1)c1c(C)cc(=O)n(O)c1O [Compound 47] | – | – | – | – | – | – | 0.52 ± 0.33 µM | 78.5 ± 32.4 µM | –
10 | C/C(=N\OCc1ccc(Br)cc1)c1c(C)cc(=O)n(O)c1O [Compound 48] | – | – | – | – | – | – | 1.13 ± 0.19 µM | 76.7 ± 30.3 µM | –
11 | C/C(=N\OCc1ccccc1Cl)c1c(C)cc(=O)n(O)c1O [Compound 49] | – | – | – | – | – | – | 0.24 ± 0.09 µM | – | –
12 | C/C(=N\OCc1cccc(Cl)c1)c1c(C)cc(=O)n(O)c1O [Compound 50] | – | – | – | – | – | – | 1.35 ± 1.03 µM | 56.9 ± 31.1 µM | –
13 | C/C(=N\OCc1ccc(Cl)cc1)c1c(C)cc(=O)n(O)c1O [Compound 51] | – | – | – | – | – | – | 0.36 ± 0.24 µM | 46.6 ± 13.6 µM | –
14 | C/C(=N\OCc1ccccc1F)c1c(C)cc(=O)n(O)c1O [Compound 52] | – | – | – | – | – | – | – | – | EC50 [1, 12]: 0.32 ± 0.2 µM; CC50 (HepDES19 cells; [12]): 90 ± 6 µM
15 | C/C(=N\OCc1cccc(F)c1)c1c(C)cc(=O)n(O)c1O [Compound 53] | – | – | – | – | – | – | 0.06 ± 0.01 µM | 73.9 ± 28.6 µM | –
16 | C/C(=N\c1ccccc1N)c1c(C)cc(=O)n(O)c1O [Compound 54] | – | – | – | – | – | – | – | – | EC50 [1, 13]: 0.69 ± 0.2 µM; CC50 (HepDES19 cells; [13]): 15 ± 7 µM
